This note sets out measurements from PubChem BioAssay (NCI).

Some test systems named below: CAKI-1 renal; A498 renal; OVCAR-3 ovarian; IGROV1 ovarian; OVCAR-5 ovarian; HT29 colon; KM12 colon; SK-MEL-5 melanoma; NCI-H226 lung.
Experiment in all cases: NCI-60 cell line screen, 48 h

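Step 1: Grow cells in 96-well plates. Step 2: Expose to compound for 48 hours at 5 concentrations. Step 3: Interpolate endpoints linearly; if unreached, use highest concentration. TGI: concentration producing complete growth inhibition.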 Where a SMILES comes first, the peptide text is derived from it. The star is where a group is joined. Boc = CC(C)(C)OC(=O)*; OBn = c1ccc(CO*)cc1 Bounds are passed on as bounds.

As to `CC(C)(C)OC(=O)NC(Cc1ccccc1)C(=O)NC(Cc1ccccc1)C(=O)NCC(=O)OCc1ccccc1` (stereo not drawn) (Boc-Phe-Phe-Gly-OBn; configuration not given here), the TGI with CAKI-1 renal is over 100 µM; with A498 renal, over 100 µM; in the assay with OVCAR-3 ovarian it was 46.1 µM; in the assay on IGROV1 ovarian, 26.5 µM; in the assay with OVCAR-5 ovarian, over 100 µM; with HT29 colon, 40.4 µM.

`O=C(NCc1ccc(Cl)cc1)c1cc2sccc2nc1C(F)(F)F`: the TGI in the assay on CAKI-1 renal is over 100 µM; in the assay with OVCAR-3 ovarian, 98.4 µM; in the assay on KM12 colon, over 100 µM; in the assay on SK-MEL-5 melanoma, over 100 µM; with NCI-H226 lung, 50 µM; in the assay with IGROV1 ovarian, over 100 µM. The TGI with OVCAR-5 ovarian and in the assay on HT29 colon was over 100 µM each time.

Turning to `COc1ccc(C2C(C#N)=C(S)N(C3OC(CO)C(O)C(O)C3O)C(c3ccccc3)=C2C(C)=O)cc1` (stereo not drawn), the TGI in the assay on A498 renal is over 100 µM; in the assay on OVCAR-3 ovarian it was over 100 µM; in the assay with KM12 colon it was over 100 µM; in the assay on SK-MEL-5 melanoma, 60.7 µM; in the assay with NCI-H226 lung it was over 100 µM; in the assay with IGROV1 ovarian, over 100 µM. Further, the TGI in the assay on OVCAR-5 ovarian and with HT29 colon was over 100 µM in each case.

With `S=C(S)NCC1CCC(CNC(=S)S)CC1` (stereo not drawn), the TGI with CAKI-1 renal was 30.6 µM; in the assay with A498 renal, over 100 µM; with OVCAR-3 ovarian it was 30.3 µM; in the assay with KM12 colon, 42.5 µM; with SK-MEL-5 melanoma it was over 100 µM; in the assay with IGROV1 ovarian, 33.9 µM. Besides, the TGI in the assay with OVCAR-5 ovarian is over 100 µM; with HT29 colon, 42.3 µM.

As to `CN(C)CCCOCCn1c2c(c3ccccc31)CCCC2`, the TGI with CAKI-1 renal came to 31.5 µM; in the assay with OVCAR-3 ovarian, 53.1 µM; in the assay on KM12 colon, 43.1 µM; with SK-MEL-5 melanoma, 25.3 µM; with NCI-H226 lung it was 63.5 µM; in the assay with IGROV1 ovarian it was 34 µM. Besides, the TGI came out at 30.5 µM with OVCAR-5 ovarian and 28.5 µM in the assay with HT29 colon.

In the case of `c1ccc2c(c1)nc1n2CCSC1`, the TGI in the assay with CAKI-1 renal, with A498 renal, with OVCAR-3 ovarian, in the assay on KM12 colon, in the assay with SK-MEL-5 melanoma and in the assay with IGROV1 ovarian was over 100 µM each time. Further, the TGI with OVCAR-5 ovarian and in the assay with HT29 colon was over 100 µM in each case.

`Cn1c2ccccc2c2c3c(c4c5ccccc5n(C)c4c21)C(=O)c1ccccc1C3=O`: the TGI in the assay on CAKI-1 renal, in the assay on OVCAR-3 ovarian, in the assay on KM12 colon, in the assay with SK-MEL-5 melanoma, in the assay with NCI-H226 lung and in the assay with IGROV1 ovarian was over 100 µM in each case. Moreover, the TGI with OVCAR-5 ovarian and with HT29 colon was over 100 µM throughout.

Take `COC(=O)[C@@]12CCCC(=O)[C@@H]1[C@H]1CCCC[C@H]12`: the TGI in the assay with CAKI-1 renal, with OVCAR-3 ovarian, in the assay with KM12 colon, in the assay with SK-MEL-5 melanoma, in the assay with NCI-H226 lung and with IGROV1 ovarian was over 100 µM throughout. Moreover, the TGI in the assay with OVCAR-5 ovarian and in the assay with HT29 colon was over 100 µM each time.

Turning to `O=C1C(Br)=C(c2ccccc2)S(=O)c2ccccc21` (stereo not drawn), the TGI worked out at 21.8 µM with CAKI-1 renal; 26 µM in the assay on OVCAR-3 ovarian; 30.7 µM in the assay with KM12 colon; 24.7 µM in the assay on SK-MEL-5 melanoma; 40.7 µM with NCI-H226 lung; 23.1 µM in the assay with IGROV1 ovarian. The TGI in the assay on OVCAR-5 ovarian was determined as 41 µM; in the assay with HT29 colon it was 63.5 µM.

On to `CSc1c(C#N)c2n(c3ccccc13)c1ccccc1[n+]2C`, for which the TGI is 84.3 µM with CAKI-1 renal; 60 µM in the assay on A498 renal; over 100 µM in the assay on OVCAR-3 ovarian; over 100 µM with KM12 colon; 26.7 µM in the assay with SK-MEL-5 melanoma; over 100 µM in the assay on IGROV1 ovarian. Also, the results for the TGI in the assay with OVCAR-5 ovarian and in the assay with HT29 colon were over 100 µM and 46.2 µM, respectively.

Regarding `CC(=O)N1CCN(C23OC4(N5CCN(C(C)=O)CC5)C5C6CC(C7C6C4C72)C53)CC1` (stereo not drawn), the TGI in the assay on CAKI-1 renal, in the assay on OVCAR-3 ovarian, in the assay on KM12 colon, with SK-MEL-5 melanoma, in the assay with NCI-H226 lung and with IGROV1 ovarian was over 100 µM throughout. The TGI in the assay on OVCAR-5 ovarian and in the assay on HT29 colon was over 100 µM each time.

With `CN(Cc1cnc2nc(N)nc(N)c2n1)c1ccc(C(=O)NC(CCC(=O)NC(P(=O)(O)O)P(=O)(O)O)C(=O)O)cc1` (stereo not drawn), the TGI with CAKI-1 renal was 29.8 µM; in the assay on OVCAR-3 ovarian it was over 100 µM; in the assay on KM12 colon, over 100 µM; in the assay with SK-MEL-5 melanoma it was over 100 µM; with NCI-H226 lung, over 100 µM; with IGROV1 ovarian, over 100 µM. The TGI in the assay with OVCAR-5 ovarian and with HT29 colon was over 100 µM each time.

On to `O=c1[nH]nc(Cc2ccccc2)n1-n1cnnc1`, for which the TGI in the assay with OVCAR-3 ovarian, in the assay on KM12 colon, in the assay on SK-MEL-5 melanoma, with IGROV1 ovarian, in the assay with OVCAR-5 ovarian and with HT29 colon was over 100 µM in each case.

As for `COc1c2cc(C(C)(C)C)cc1Cc1cccc(c1O)Cc1cc(C(C)(C)C)cc(c1OC)Cc1cccc(c1O)Cc1cc(C(C)(C)C)cc(c1OC)Cc1cccc(c1O)C2`, the TGI with CAKI-1 renal, in the assay on A498 renal, in the assay on OVCAR-3 ovarian, with KM12 colon, in the assay with SK-MEL-5 melanoma and in the assay with OVCAR-5 ovarian was over 100 µM in each case. The molecule also returned a TGI with HT29 colon of over 100 µM.

Turning to `CN(C)CCNc1ncnc2nc(-c3ccc4ccccc4c3)[nH]c12`, the TGI in the assay with CAKI-1 renal, in the assay with OVCAR-3 ovarian, in the assay with KM12 colon, in the assay with SK-MEL-5 melanoma, in the assay with NCI-H226 lung and in the assay with IGROV1 ovarian was over 100 µM in each case. In addition, the TGI in the assay on OVCAR-5 ovarian and in the assay with HT29 colon was over 100 µM each time.

Regarding `Cc1ccc(N=Nc2c(C)c(C#N)c(=S)n(C3OC(CO)C(O)C(O)C3O)c2-c2ccccc2)cc1` (stereo not drawn), the TGI in the assay with CAKI-1 renal is 92.6 µM; in the assay with A498 renal it was 33.2 µM; in the assay on OVCAR-3 ovarian, 41 µM; in the assay with KM12 colon it was 58.9 µM; in the assay on SK-MEL-5 melanoma, 23.2 µM; in the assay on IGROV1 ovarian it was over 100 µM. In addition, the values for the TGI with OVCAR-5 ovarian and in the assay on HT29 colon were 55.9 µM and 89.2 µM, respectively.
